Assay results published in paper PMC12466513, “Okanin Attenuates Mitochondrial Dysfunction and Apoptosis in UVA-Induced HaCaT Cells by Mitophagy Through SIRT3 Pathway” (Antioxidants, 2025).
pKd: −log10 of the molar value.

Assays:
SIRT3 [1] = target: T1, SIRT3 (Homo sapiens, UniProt Q9NTG7); test: surface plasmon resonance; format: binding; design: SIRT3 protein used for SPR; PDB 4JT8 was only the docking model
T1 sequence (Q9NTG7 102-399): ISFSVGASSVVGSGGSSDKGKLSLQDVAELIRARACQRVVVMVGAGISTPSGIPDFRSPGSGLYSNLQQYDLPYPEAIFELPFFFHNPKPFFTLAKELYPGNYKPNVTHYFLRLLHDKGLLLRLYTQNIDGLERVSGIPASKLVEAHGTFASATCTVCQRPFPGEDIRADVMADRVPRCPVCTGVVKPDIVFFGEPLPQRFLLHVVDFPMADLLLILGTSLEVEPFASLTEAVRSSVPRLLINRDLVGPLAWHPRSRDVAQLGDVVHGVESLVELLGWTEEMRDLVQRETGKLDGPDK

SIRT3 [2] = target: T1, SIRT3; test: DARTS (pronase digestion, blot); format: biochemical; design: detected by blot; details: protein lysate

- pKd (SIRT3 [1]): 5.30
SMILES: O=C(/C=C/c1ccc(O)c(O)c1)c1ccc(O)c(O)c1O [okanin]
- DARTS protection (SIRT3 [2]): okanin treatment significantly enhanced SIRT3 resistance to pronase digestion in protein lysates
